Experimental data as given in patent US12577272B2, “CD73 inhibitors” (ORIC Pharmaceuticals, Inc., priority 2019, dated 2026).

Target: T1, CD73 (Homo sapiens, UniProt P21589)
T1 sequence (P21589 27-549): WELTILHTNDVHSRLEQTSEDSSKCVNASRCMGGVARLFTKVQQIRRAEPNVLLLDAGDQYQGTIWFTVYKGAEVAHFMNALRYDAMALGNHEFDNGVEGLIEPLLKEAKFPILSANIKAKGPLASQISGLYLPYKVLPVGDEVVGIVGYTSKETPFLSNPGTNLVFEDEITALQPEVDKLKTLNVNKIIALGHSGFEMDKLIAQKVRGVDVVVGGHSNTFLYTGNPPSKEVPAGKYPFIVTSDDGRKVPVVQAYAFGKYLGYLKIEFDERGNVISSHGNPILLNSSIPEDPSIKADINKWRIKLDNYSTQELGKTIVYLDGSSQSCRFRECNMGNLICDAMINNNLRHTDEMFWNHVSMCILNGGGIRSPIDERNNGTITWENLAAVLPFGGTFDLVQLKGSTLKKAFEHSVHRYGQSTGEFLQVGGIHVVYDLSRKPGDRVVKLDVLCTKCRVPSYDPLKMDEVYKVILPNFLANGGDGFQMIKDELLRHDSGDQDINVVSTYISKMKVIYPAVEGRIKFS
Test: Biochemical Assay: inhibition of CD73 activity (AMP hydrolysis, Malachite Green readout)
Details: CD73 0.3208 nM, AMP 15 μM, 25 mM Tris-HCl pH 7.4, 10 min reaction at RT; read-out: CD73_Biochem
Method: Example A1: Biochemical Assay
Assay Reaction Conditions
• Assay Volume: 70 μl • Reaction Volume: 50 μl • CD73: 0.3208 nM • AMP: 15 μM • Assay Buffer: 2 5 mM Tris-HCL, pH 7.4, 0.01% Brij-35, 0.01% BSA, 5 mM MgCl2 Assay Procedure:
Made dose titration of testing compounds in assay buffer, 10 points ½ log titrations in duplicates starting at 100 μM.
Added 25 μl of CD73 to each well for a final concentration of 320 pM.
Incubated at RT for 15 min.
Added 25 μl of AMP to each well for a final concentration of 15 μM.
Incubated at RT for 10 min.
Added 10 μl of Malachite Green Reagent A, incubate at RT for 10 min.
Added 10 μl of Malachite Green Reagent B, incubate at RT for 45 min.
Read the Absorbance on Envision plate reader using excitation filter: Cy5 […].
The ability of the compounds disclosed herein to inhibit CD73 activity was quantified and the respective IC50 values were determined. Table 2 provides the biochemical IC50 values of compounds disclosed herein.

IC50: ≤ 10 nM
Structure (SMILES): COCCOCC(COCc1nnn[nH]1)(OC[C@H]1O[C@@H](n2ncc3c(NC4CCCC4)nc(Cl)nc32)[C@H](O)[C@@H]1O)P(=O)(O)O (single isomer, unassigned) [Example 2]
